# Data: patent US20230104936A1, “TRPML MODULATORS” (Casma Therapeutics, Inc., priority 2019, published 2023)
# Tested on: TFEB
# Assay: TFEB nuclear translocation assay, HeLa wt cells
# Format: cell-based
# Details: 2 hrs compound treatment, Table 1 does not say HeLa wt or TRPML1 KO
# Outline: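 HeLa wt or TRPML1 KO cells treated 2 hrs with compounds at 37° C, fixed in 4% PFA, immunostained with anti-TFEB plus Alexa 488 secondary and Hoechst. Imaged at ×20, four fields/well; read-out is nuclear/perinuclear-ring TFEB intensity ratio, reported as AC50.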
row,Structure (SMILES),AC50 [nM]
1,"C[C@@H]1COC[C@@H](C)N1CC1CCN(c2c(F)cccc2NS(=O)(=O)c2ccc(S(=N)(=O)N(C)C)cc2)CC1 (stereo partly drawn) [Compound A-836, N-(2-(4-(((3S,5S)-3,5-dimethylmorpholino)methyl)piperidin-1-yl)-3-fluorophenyl)-4-(N,N-dimethylsulfamidimidoyl)benzenesulfonamide]",2010 to 8000
2,"CC(c1cccc(F)c1N1CCC(CN2C3CCC2COC3)CC1)S(=O)(=O)c1ccc(S(=O)(=O)N(C)C)cc1 (stereo not shown) [Compound A-839, 4-(1-{3-fluoro-2-[4-({3-oxa-8-azabicyclo[3.2.1]octan-8-yl}methyl)piperidin-1-yl]phenyl}ethanesulfonyl)-N,N-dimethylbenzene-1-sulfonamide]",≤ 2000
3,"C[C@H]1COC[C@H](C)N1CC1CCN(c2c(F)cccc2NS(=O)(=O)c2ccc(S(=N)(=O)N(C)C)cc2)CC1 (stereo partly drawn) [Compound A-840, N-(2-(4-(((3S,5S)-3,5-dimethylmorpholino)methyl)piperidin-1-yl)-3-fluorophenyl)-4-(N,N-dimethylsulfamidimidoyl)benzenesulfonamide]",≤ 2000
4,"CN(C)S(=N)(=O)c1ccc(S(=O)(=O)Nc2cccc(F)c2N2CCC(CN3CC4CCC(C3)O4)CC2)cc1 (stereo not shown) [Compound A-852, N-(2-(4-((8-oxa-3-azabicyclo[3.2.1]octan-3-yl)methyl)piperidin-1-yl)-3-fluorophenyl)-4-(N,N-dimethylsulfamidimidoyl)benzenesulfonamide]",≤ 2000
5,"CN(C)S(=N)(=O)c1ccc(S(=O)(=O)Nc2cccc(F)c2N2CCC(CN3CC4CCC(C3)O4)CC2)cc1 (stereo not shown) [Compound A-853, N-(2-(4-((8-oxa-3-azabicyclo[3.2.1]octan-3-yl)methyl)piperidin-1-yl)-3-fluorophenyl)-4-(N,N-dimethylsulfamidimidoyl)benzenesulfonamide]",≤ 2000
6,"CC(c1cccc(F)c1N1CCC(CN2C3CCC2COC3)CC1)S(=O)(=O)c1ccc(S(=O)(=O)N(C)C)cc1 (stereo not shown) [Compound A-855, 4-((1-(2-(4-((3-oxa-8-azabicyclo[3.2.1]octan-8-yl)methyl)piperidin-1-yl)-3-fluorophenyl)ethyl)sulfonyl)-N,N-dimethylbenzenesulfonamide]",2010 to 8000
7,"CC(c1cccc(F)c1N1CCC(CN2C3COCC2C3)CC1)S(=O)(=O)c1ccc(S(=O)(=O)N(C)C)cc1 (stereo not shown) [Compound A-860, 4-(1-{3-fluoro-2-[4-({3-oxa-6-azabicyclo[3.1.1]heptan-6-yl}methyl)piperidin-1-yl]phenyl}ethanesulfonyl)-N,N-dimethylbenzene-1-sulfonamide]",2010 to 8000

# Same assay, conditions: Homo sapiens, HeLa, 2 h, 2 hrs compound treatment, Table 1 does not say HeLa wt or TRPML1 KO
row,Structure (SMILES),AC50 [nM]
1,"COC(=O)NC1(C)CCN(c2c(F)cccc2NS(=O)(=O)c2ccc(S(=O)(=O)N(C)C)cc2)CC1 [Compound A-825, methyl N-(1-{2-[4-(dimethylsulfamoyl)benzenesulfonamido]-6-fluorophenyl}-4-methylpiperidin-4-yl)carbamate]",≤ 2000
2,"C[C@H]1CN(CC2CCN(c3c(F)cccc3NS(=O)(=O)c3ccc(S(=O)(=O)N(C)C)cc3)CC2)C[C@H](C)O1 [Compound A-826, N4-[2-(4-{[(2S,6S)-2,6-dimethylmorpholin-4-yl]methyl}piperidin-1-yl)-3-fluorophenyl]-N1,N1-dimethylbenzene-1,4-disulfonamide]",≤ 2000
3,"CC(=O)Nc1cccc(NS(=O)(=O)c2ccc(S(=O)(=O)N(C)C)cc2)c1N1CCCCC1 [Compound A-827, N-{3-[4-(dimethylsulfamoyl)benzenesulfonamido]-2-(piperidin-1-yl)phenyl}acetamide]",≥ 10000
4,"COCC1(C)C2CCC1CN(c1ccccc1NS(=O)(=O)c1ccc(S(=O)(=O)N(C)C)cc1)C2 (stereo not shown) [Compound A-829, N4-{2-[8-(methoxymethyl)-8-methyl-3-azabicyclo[3.2.1]octan-3-yl]phenyl}-N1,N1-dimethylbenzene-1,4-disulfonamide]",≤ 2000
5,"CN(C)S(=O)(=O)c1ccc(S(=O)(=O)Nc2cccc(F)c2N2CCC(C)(C(F)F)CC2)cc1 [Compound A-830, N4-{2-[4-(difluoromethyl)-4-methylpiperidin-1-yl]-3-fluorophenyl}-N1,N1-dimethylbenzene-1,4-disulfonamide]",≤ 2000
6,"C[C@@H]1CN(CC2CCN(c3c(NS(=O)(=O)c4ccc(S(=O)(=O)N(C)C)cc4)cccc3C(F)F)CC2)C[C@H](C)O1 [Compound A-831, N4-[3-(difluoromethyl)-2-(4-{[(2R,6S)-2,6-dimethylmorpholin-4-yl]methyl}piperidin-1-yl)phenyl]-N1,N1-dimethylbenzene-1,4-disulfonamide]",≤ 2000
7,"CC(c1cccc(F)c1N1CCC(CN2C3CCC2COC3)CC1)S(=O)(=O)c1ccc(S(=O)(=O)N(C)C)cc1 (stereo not shown) [Compound A-832, 4-((1-(2-(4-((3-oxa-8-azabicyclo[3.2.1]octan-8-yl)methyl)piperidin-1-yl)-3-fluorophenyl)ethyl)sulfonyl)-N,N-dimethylbenzenesulfonamide]",≤ 2000
8,"C[C@@H]1COC[C@@H](C)N1CC1CCN(c2c(F)cccc2NS(=O)(=O)c2ccc(S(=N)(=O)N(C)C)cc2)CC1 (stereo partly drawn) [Compound A-835, N-(2-(4-(((3S,5S)-3,5-dimethylmorpholino)methyl)piperidin-1-yl)-3-fluorophenyl)-4-(N,N-dimethylsulfamidimidoyl)benzenesulfonamide]",≤ 2000
9,"CC(c1cccc(F)c1N1CCC(CN2C[C@H]3C[C@@H](C2)O3)CC1)S(=O)(=O)c1ccc(S(=O)(=O)N(C)C)cc1 (stereo partly drawn) [Compound A-837, 4-{1-[3-fluoro-2-(4-{[(1R,5S)-6-oxa-3-azabicyclo[3.1.1]heptan-3-yl]methyl}piperidin-1-yl)phenyl]ethanesulfonyl}-N,N-dimethylbenzene-1-sulfonamide]",≤ 2000
10,"C[C@@H]1CN(CC2CCN(c3c(F)cccc3NS(=O)(=O)c3ccc(S(C)(=N)=O)cc3)CC2)C[C@H](C)O1 (stereo partly drawn) [Compound A-841, N-(2-(4-(((2R,6S)-2,6-dimethylmorpholino)methyl)piperidin-1-yl)-3-fluorophenyl)-4-(S-methylsulfonimidoyl)benzenesulfonamide]",2010 to 8000
11,"CC(c1cccc(C#N)c1N1CCC(CN2C[C@@H](C)O[C@@H](C)C2)CC1)S(=O)(=O)c1ccc(S(=O)(=O)N(C)C)cc1 (stereo partly shown) [Compound A-842, 4-((1-(3-cyano-2-(4-((2,6-dimethylmorpholino)methyl)piperidin-1-yl)phenyl)ethyl)sulfonyl)-N,N-dimethylbenzenesulfonamide]",≤ 2000
12,"CN(C)S(=N)(=O)c1ccc(S(=O)(=O)Nc2cccc(F)c2N2CCC(CN3CC4CCC(C3)O4)CC2)cc1 (stereo not shown) [Compound A-844, 4-({3-fluoro-2-[4-({8-oxa-3-azabicyclo[3.2.1]octan-3-yl}methyl)piperidin-1-yl]phenyl}sulfamoyl)-N,N-dimethylbenzene-1-sulfonoimidamide]",≤ 2000
13,"CC(c1ccncc1N1CCC(CN2C[C@@H](C)O[C@@H](C)C2)CC1)S(=O)(=O)c1ccc(S(=O)(=O)N(C)C)cc1 (stereo partly drawn) [Compound A-850, 4-{1-[3-(4-{[(2R,6S)-2,6-dimethylmorpholin-4-yl]methyl}piperidin-1-yl)pyridin-4-yl]ethanesulfonyl}-N,N-dimethylbenzene-1-sulfonamide]",2010 to 8000
14,"CN(C)S(=O)(=O)c1ccc(S(=O)(=O)Nc2cncc(F)c2N2CCCCC2)cc1 [Compound A-856, N1-(5-fluoro-4-(piperidin-1-yl)pyridin-3-yl)-N^4,N^4-dimethylbenzene-1,4-disulfonamide]",≥ 10000
15,"CCC(C1CCN(c2c(F)cccc2NS(=O)(=O)c2ccc(S(=N)(=O)N(C)C)cc2)CC1)N1CCOCC1 (stereo not shown) [Compound A-857, 4-[(3-fluoro-2-{4-[1-(morpholin-4-yl)propyl]piperidin-1-yl}phenyl)sulfamoyl]-N,N-dimethylbenzene-1-sulfonoimidamide]",≤ 2000
16,"CN(C)S(=N)(=O)c1ccc(S(=O)(=O)Nc2cccc(F)c2N2CCC(C3(N4CCOCC4)CC3)CC2)cc1 (stereo not shown) [Compound A-858, 4-[(3-fluoro-2-{4-[1-(morpholin-4-yl)cyclopropyl]piperidin-1-yl}phenyl)sulfamoyl]-N,N-dimethylbenzene-1-sulfonoimidamide]",≤ 2000
17,"CC(c1cccc(F)c1N1CCC(CN2C[C@@H](C)O[C@H](C)C2)CC1)S(=O)(=O)c1ccc(S(=O)(=O)N(C)C)cc1 (stereo partly drawn) [Compound A-859, 4-{1-[2-(4-{[(2R,6R)-2,6-dimethylmorpholin-4-yl]methyl}piperidin-1-yl)-3-fluorophenyl]ethanesulfonyl}-N,N-dimethylbenzene-1-sulfonamide]",≤ 2000
18,"COCC(F)(F)C1CCN(c2c(F)cccc2NS(=O)(=O)c2ccc(S(=O)(=O)N(C)C)cc2)CC1 [Compound A-861, N4-{2-[4-(1,1-difluoro-2-methoxyethyl)piperidin-1-yl]-3-fluorophenyl}-N1,N1-dimethylbenzene-1,4-disulfonamide]",≤ 2000
19,"C[C@H]1CN(CC2CCN(c3c(F)cccc3NS(=O)(=O)c3ccc(S(=O)(=O)N(C)C)cc3)CC2)[C@@H](C)CO1 [Compound A-862, N4-[2-(4-{[(2S,5S)-2,5-dimethylmorpholin-4-yl]methyl}piperidin-1-yl)-3-fluorophenyl]-N1,N1-dimethylbenzene-1,4-disulfonamide]",≤ 2000
20,"C[C@@H]1CN(CC2CCN(c3c(NS(=O)(=O)c4ccc(S(=O)(=O)N(C)C)cc4)cccc3C3CC3)CC2)C[C@H](C)O1 [Compound A-863, N4-[3-cyclopropyl-2-(4-{[(2R,6S)-2,6-dimethylmorpholin-4-yl]methyl}piperidin-1-yl)phenyl]-N1,N1-dimethylbenzene-1,4-disulfonamide]",≤ 2000
21,"C[C@@H]1CN(CC2CCN(c3c(Br)cccc3NS(=O)(=O)c3ccc(S(=O)(=O)N(C)C)cc3)CC2)C[C@H](C)O1 [Compound A-864, N4-[3-bromo-2-(4-{[(2R,6S)-2,6-dimethylmorpholin-4-yl]methyl}piperidin-1-yl)phenyl]-N1,N1-dimethylbenzene-1,4-disulfonamide]",≤ 2000
